# Measurements from patent publication US7109341B2, “Therapeutic amides” (Wayne State University, priority 2002, dated 2006).
# “And” between values parts separate entries of the source, which are not always exact repeats. Equal values may be shown once. Read-outs that look alike come from different tables or passages of the source.
# How the values were obtained:
# [1] = IV; total dose; cited from earlier work
# [2] = test system: Pancreatic Ductal Adenocarcinoma #03; experiment: Evaluation against early stage Pancreatic Ductal Adenocarcinoma #03, BD1 female mice (Table 2); details: Cage 2; IV; QD3–6, 10; total 300 mg/kg
# [3] = test system: Pancreatic Ductal Adenocarcinoma 03; experiment: Evaluation against early stage Pancreatic Ductal Adenocarcinoma 03 in female BDF1 mice (Table 4); format: in vivo, mouse; details: IV
# Text: The higher dose requirement for compound 14e may be a disadvantage over compound 11b (Cage 14).
# [4] = test system: Pancreatic Adenocarcinoma 03; experiment: Evaluation against early stage Pancreatic Adenocarcinoma 03 in BDF1 male mice (Table 1); format: in vivo, mouse; details: Cage 8; IV; QD 3–5; total 180 mg/kg
# [5] = test system: Mammary Adenocarcinoma 17/ADR; experiment: Evaluation against early stage Mammary Adenocarcinoma 17/ADR, C3H/He females (Table 3); format: in vivo; details: IV
# [6] = test system: Pancreatic Ductal Adenocarcinoma 03; details: footnote, no dose given; cited from earlier work;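 as to T/C: mice carrying bilateral subcutaneous tumors, with tumor weight estimated from two-dimensional caliper readings taken twice a week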;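 as to activity rating: mice carrying bilateral subcutaneous tumors, with tumor weight estimated from two-dimensional caliper readings taken twice a week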
# [7] = Water solubility noted on drug preparation for injection; format: physicochemical
# Method: (§1) Compounds as their sodium salts were prepared in a 1% sodium bicarbonate solution, H2O or phosphate buffered saline (PBS), with pH adjusted to 7.0 to 7.5 with HCl, and administered intravenously (IV) or orally (PO), at injection volumes of 0.2 mL per injection.
# [8] = test system: Pancreatic Ductal Adenocarcinoma 03; experiment: Evaluation against early stage Pancreatic Ductal Adenocarcinoma 03, IP route, C57 females (Table 9); format: in vivo
# Method: The IP route was used for two reasons. […] This is approximately 40% of the dose given IV with the racemic mix (60 mg/kg, see Table 7).
# [9] = test system: Pancreatic Ductal Adenocarcinoma 03; details: for Comments (Active/Inactive) / Comments (activity rating) / Drug Death / Log Cell Kill / Median Tumor Burden in mg on d17 / T-C / T/C % / Time to 1000 mg / Tumor Free on 148: BDF1 males;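 as to T/C: mice carrying bilateral subcutaneous tumors, with tumor weight estimated from two-dimensional caliper readings taken twice a week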;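 as to activity rating: mice carrying bilateral subcutaneous tumors, with tumor weight estimated from two-dimensional caliper readings taken twice a week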
# Text: (§2) Pancreatic ductal adenocarcinoma-03, mammary adenocarcinoma-16/C, mammary adenocarcinoma-17/Adr, and human melanoma LOX were used in the studies. Tumors were maintained in the mouse strain of origin (C57B1/6 for Panc-03 and C3H for the mammary tumors). Balb/c SCID mice (B and T cell deficient) were used for tumor maintenance and chemotherapy trials involving the human melanoma LOX. Tumors were transplanted into the appropriate F1 hybrid (B6D2F1=C57B 1/6 female× DBA/2 male) or the strain of origin for the chemotherapy trials. Individual mouse body weights for each experiment were within 5 grams, and all mice were over 17 grams at the start of therapy. The mice were supplied food and water ad libitum.
# (§3) Animals were pooled, implanted subcutaneously with 30 to 60 mg tumor fragments by a 12 gauge trocar on day 0, and again pooled before unselective distribution to the various treatment and control groups. For early stage treatment, chemotherapy was started within 1 to 3 days after tumor implantation while the number of cells was relatively small (10^7 to 10^8 cells). For upstaged or advanced staged trials, the tumors were allowed to grow for five or more days before treatment was started. Tumors were measured with a caliper twice weekly. […] Tumor weights are estimated from two-dimensional measurements:
# (§4) Tumor weight (in mg)=(a×b^2)/2, where a and b are the tumor length and width in (mm), respectively.
# a) Tumor growth delay (T−C value), where T is the median time (in days) required for the treatment group tumors to reach a predetermined size (e.g., 1,000 mg), and C is the median time (in days) for the control group tumors to reach the same size. Tumor-free survivors were are excluded from these calculations (cures are tabulated separately). This value is an important criterion of anti-tumor effectiveness because it allows the quantification of tumor cell kill.
# (§5) b) Calculation of tumor cell kill for subcutaneously (SC) growing tumors. […] The conversion of the T−C values to log10 cell kill is possible because the Td of tumors re-growing post treatment (Rx) approximates the Td values of the tumors in untreated control mice.
# (§6) It should be noted that an activity rating of +++ to ++++ is needed to effect partial regression (PR) or complete regression (CR) of 100 to 300 mg size masses of most transplanted solid tumors of mice. Thus, an activity rating of + or ++ would not be scored as active by usual clinical criteria. A PR is a reduction in tumor mass to less than 50% of pretreatment size. A CR is a reduction in tumor mass to below palpable size (i.e., reduction to zero detectable mass).
# (§7) The T/C value in percent is an indication of anti-tumor effectiveness: A T/C=0% means no tumor growth. A T/C=100% means no anti-tumor activity, i.e., the treated and control tumors grew equally. […] A T/C value<10% is considered to indicate highly significant anti-tumor activity, and is the level used by NCI to justify a clinical trial if toxicity, formulation, and certain other requirements are met (termed DN-2 level activity).
# as §1
# Thus, for this test, all compounds initially were to be given IP, in an attempt to identify a suitable alternate route of administration.
# [10] = test system: Mammary Adenocarcinoma 16/C; details: Cage 4, IV, qd 1–5, total 240 mg/kg
# Text: Table 7. […] The animal was then re-implanted with Mam16/C/71.
# [11] = test system: Mammary Adenocarcinoma 16/C
# Text: as §2, §3, §4
# a) Tumor growth delay (T−C value), where T is the median time (in days) required for the treatment group tumors to reach a predetermined size (e.g., 1,000 mg), and C is the median time (in days) for the control group tumors to reach the same size. Tumor-free survivors were are excluded from these calculations (cures are tabulated separately).
# as §5, §6, §7, §1
# [12] = Cage 5, 57 mg/kg/injection QD 3–9, total 399 mg/kg
# [13] = Cage 6, 38 mg/kg/injection QD 3–9, total 266 mg/kg
# [14] = Cage 4, 56 mg/kg/injection QD-1–5 and 10, total 336 mg/kg
# [15] = Cage 2, 7.5 mg/kg/inj days 1, 7, total 15 mg/kg
# [16] = Cage 2, BID3–5, total 450 mg/kg
# [17] = Cage 3, BID3–7, total 450 mg/kg
# [18] = Cage 11, IP, 80 mg/kg/inj days 3, 5, 11, 13, 15, total 400 mg/kg
# [19] = Cage 12, IP, 50 mg/kg/inj Q2d×7 from day 3, total 350 mg/kg
# [20] = IP, Q2d: 3–15, total dosage 350 mg/kg
# [21] = IP, d3, 5, 11, 13, 15, total dosage 400 mg/kg
# [22] = Cage 2, IV, Q2Dx8, total 480 mg/kg
# [23] = Cage 5, Qd3–7, total 157.5 mg/kg
structure (smiles),measurement,setting,value
"CC(Oc1ccc(Oc2cnc3ccc(Cl)cc3n2)cc1)C(=O)O (racemic) [XK469, reference compound]",MTD (historical),[1],450 to 480 mg/kg
same,Activity Rating,[2],++++ (Highly active >2.8)
same,Day of Wt. Loss Nadir,[2],8 days
same,Drug Deaths (day of death),[2],0/5
same,Growth Delay,[2],28.1 days
same,Log Cell Kill,[2],3.3
same,Mean Body Wt. Loss (g/mouse),[2],−3.2 g/mouse
same,Median Tumor Burden in mg on d18 (Range),[2],64 mg
same,T/C %,[2],4%
same,Time in days to 1000 mg (range),[2],41.1 days
same,Tumor Free on d 154,[2],1/5
same,day of full body weight recovery,[2],~12 days
same,% Body Wt Loss at Nadir,[3]; [12],−6.7%
same,% T/C mass,[3]; [12],4.1%
same,Activity Rating,[3]; [12],++ (1.3–1.9)
same,Day of Nadir,[3]; [12],8 days
same,Drug Deaths,[3]; [12],0/5
same,Growth Delay,[3]; [12],11.5 days
same,Log Kill,[3]; [12],1.7
same,Median Tumor Mass on Day 14 (Range),[3]; [12],63
same,Tumor Free day-37,[3]; [12],0/5
same,% Body Wt Loss at Nadir,[3]; [13],−6.7%
same,% T/C mass,[3]; [13],8.3%
same,Activity Rating,[3]; [13],++ (1.3–1.9)
same,Day of Nadir,[3]; [13],5 days
same,Drug Deaths,[3]; [13],0/5
same,Growth Delay,[3]; [13],9.5 days
same,Log Kill,[3]; [13],1.4
same,Median Tumor Mass on Day 14 (Range),[3]; [13],126
same,Tumor Free day-37,[3]; [13],0/5
same,Day of Wt. Loss Nadir,[4],8 days
same,Drug Deaths (days of death),[4],no drug deaths and 0/5
same,Log Kill,[4],1.43 and 1.4
same,Mean Body Wt. Loss in g/mouse,[4],−3.6 g/mouse
same,Median tumor burden in mg on day 14 (range),[4],189 mg
same,Percent Body Wt. Loss,[4],−15.5%
same,T-C,[4],9 days
same,T/C %,[4],11%
same,Time to 1000 mg days (range),[4],20 days
same,Tumor Free on day 21,[4],0/5
same,day of body weight recovery,[4],13 days
same,% Body Wt Loss at Nadir,[5]; [14],−7.1%
same,% T/C mass,[5]; [14],9%
same,Activity Rating,[5]; [14],++++ (Highly active >2.8)
same,Day of Nadir,[5]; [14],8 days
same,Drug Deaths,[5]; [14],0/5
same,Growth Delay,[5]; [14],15.5 days
same,Log Kill,[5]; [14],4.2
same,Median Tumor Mass on Day 9 (Range),[5]; [14],108
same,Tumor Free day-21,[5]; [14],0/5
"COc1cccc2c1C(=O)c1c(O)c3c(c(O)c1C2=O)C[C@@](O)(C(=O)CO)C[C@@H]3O[C@H]1C[C@H](N)[C@H](O)[C@H](C)O1 [Adriamycin, reference compound]",sensitivity of this tumor to standard agents (activity rating),[6],It is nicely sensitive to Adriamycin (+++ activity). (2.0–2.8)
same,% Body Wt Loss at Nadir,[5]; [15],−1.4%
same,% T/C mass,[5]; [15],90%
same,Activity Rating,[5]; [15],inactive
same,Day of Nadir,[5]; [15],7 days
same,Drug Deaths,[5]; [15],0/5
same,Growth Delay,[5]; [15],0 days
same,Log Kill,[5]; [15],none
same,Median Tumor Mass on Day 9 (Range),[5]; [15],1086
same,Tumor Free day-21,[5]; [15],0/5
"CC(Oc1ccc(Oc2ccc3ccc(Br)cc3n2)cc1)C(=O)NCCS(=O)(=O)[O-].[Na+] [Compound 14g (R), Sodium (2-(4-(7-bromo-2-quinolinyl)oxy)phenoxy) propionylamino ethanesulfonate]",water solubility,[7],Low water solubility limits
same,solubility limit,[7]; expressed as injectable dose,25 mg/kg (0.2 ml/inj)
same,Day of Wt. Loss Nadir,[8]; [16],9 days
same,Drug Death (day of death),[8]; [16],one drug death and 1/5
same,Log Cell Kill,[8]; [16],1.52
same,Mean Body Wt. Loss in g/mouse,[8]; [16],−4.4 g/mouse
same,Median Tumor Burden in mg on d14 (range),[8]; [16],0 mg
same,T-C,[8]; [16],10.75 days
same,T/C %,[8]; [16],0%
same,Time to 1000 mg in days (range),[8]; [16],24.75 days
same,Tumor Free on d31,[8]; [16],0/5
same,day of body weight recovery,[8]; [16],≤ 17 days
same,toxicity observations,[8]; [16],increased urinary output and a sunken appearance
same,Day of Wt. Loss Nadir,[8]; [17],9 days
same,Drug Death (day of death),[8]; [17],0/5
same,Log Cell Kill,[8]; [17],1.72
same,Mean Body Wt. Loss in g/mouse,[8]; [17],−1.2 g/mouse
same,Median Tumor Burden in mg on d14 (range),[8]; [17],126 mg
same,T-C,[8]; [17],12 days
same,T/C %,[8]; [17],12.6%
same,Time to 1000 mg in days (range),[8]; [17],26 days
same,Tumor Free on d31,[8]; [17],0/5
"O=c1[nH]cc(F)c(=O)[nH]1 [Compound 5-FU, 5-FU]",sensitivity of this tumor to standard agents (activity rating),[6],It is modestly responsive to 5-FU (+ activity). (0.7–1.2)
CC(=O)O[C@H]1C(=O)[C@@]2(C)[C@H]([C@H](OC(=O)c3ccccc3)[C@]3(O)C[C@H](OC(=O)[C@H](O)[C@@H](NC(=O)c4ccccc4)c4ccccc4)C(C)=C1C3(C)C)[C@]1(OC(C)=O)CO[C@@H]1C[C@@H]2O [Taxol],sensitivity of this tumor to standard agents (activity rating),[6],This tumor is highly sensitive to Taxol (++++ activity rating). (Highly active >2.8)
CC[C@]1(O)C[C@@H]2CN(CCc3c([nH]c4ccccc34)[C@@](C(=O)OC)(c3cc4c(cc3OC)N(C)[C@H]3[C@@](O)(C(=O)OC)[C@H](OC(C)=O)[C@]5(CC)C=CCN6CC[C@]43[C@@H]65)C2)C1 [Vinblastine],sensitivity of this tumor to standard agents (activity rating),[6],It is insensitive to Vinblastine.
"CC(Oc1ccc(Oc2ccc3ccc(Br)cc3n2)cc1)C(=O)O [Compound 11c (R), 2-{4-{(7-bromo-2-quinolinyl)oxy}phenoxy}propionic acid, reference compound]",Activity Rating,[9]; [18],++++ (Highly active >2.8)
same,T/C,[9]; [18],0%
same,log cell kill,[9]; [18],3.3
same,tumor free on day 148,[9]; [18],1/5 and One mouse remained tumor free
same,Activity Rating,[9]; [19],++ (1.3–1.9)
same,T/C,[9]; [19],3%
same,log kill,[9]; [19],1.4
same,Comments (Active/Inactive),[9]; [20],Active
same,Comments (activity rating),[9]; [20],(++) (1.3–1.9)
same,Drug Death,[9]; [20],0/5
same,Log Cell Kill,[9]; [20],1.4
same,Median Tumor Burden in mg on d17,[9]; [20],63 mg
same,T-C,[9]; [20],10 days
same,T/C %,[9]; [20],3%
same,Time to 1000 mg,[9]; [20],25 days
same,Tumor Free on 148,[9]; [20],0/5
same,Comments (Active/Inactive),[9]; [21],Active
same,Comments (activity rating),[9]; [21],(++++) (Highly active >2.8)
same,Drug Death,[9]; [21],0/5
same,Log Cell Kill,[9]; [21],3.3
same,Median Tumor Burden in mg on d17,[9]; [21],0 mg
same,T-C,[9]; [21],23 days
same,T/C %,[9]; [21],0%
same,Time to 1000 mg,[9]; [21],38 days
same,Tumor Free on 148,[9]; [21],1/5
same,Day of Wt. Loss Nadir,"[9]; mouse, in vivo",9 days and 8 days
same,day of full weight recovery,"[9]; mouse, in vivo",16 days and 11 days
same,day of weight loss nadir,"[9]; mouse, in vivo",9 days and 8 days
same,Day of Wt. Loss Nadir,[10],9 days
same,Drug Death (day of death),[10],One animal died and 1/5
same,Log Cell Kill,[10],1.8
same,Mean Body Wt. Loss in g/mouse,[10],−6.0 g/mouse
same,Median Tumor Burden in mg on d 9 (range),[10],0 mg
same,Percent Body Weight Loss,[10],−29.4%
same,T-C,[10],7.2 days
same,T/C %,[10],0%
same,"Time to 1,000 mg in days (range)",[10],15.2 days
same,Tumor Free on d 161,[10],0/5
same,day of body weight recovery,[10],≤ 13 days
same,toxicity observations,[10],diarrhea
same,body weight loss day 6,[10]; day 6,−17.5%
same,Preparation: state of the injection preparation,"[7]; white solid + 3% EtOH + 1% POE + 0.25% NaHCO3 + saline, pH = 9 → 7 with 1N HCl","Compound 11c (R): white solid + 3% EtOH + 1% POE + 0.25% NaHCO3 + saline → solution (pH = 9 → 7 with 1N HCl); 0.5 ml/mouse/inj, IP."
same,Drug Death (day of death),[11]; [22],0/5
same,Log Cell Kill,[11]; [22],4.8
same,Median Tumor Burden in mg on day 7 (range),[11]; [22],0 mg
same,T-C,[11]; [22],16 days
same,T/C %,[11]; [22],0%
same,Time to 1000 mg in days (range),[11]; [22],22 days
same,Tumor Free on d28,[11]; [22],no cures and 0/5
same,Day of Wt. Loss Nadir,"[11]; mouse, in vivo",14 days
same,Percent Body Weight Loss,"[11]; mouse, in vivo",−4.3%
same,Comments (activity rating),"[8]; Cage 4, Qd3–7, total 260 mg/kg",LD20
same,Day of Wt. Loss Nadir,"[8]; Cage 4, Qd3–7, total 260 mg/kg",10 days
same,Drug Death (day of death),"[8]; Cage 4, Qd3–7, total 260 mg/kg",One drug death and 1/5
same,Log Cell Kill,"[8]; Cage 4, Qd3–7, total 260 mg/kg",1.5
same,Mean Body Wt. Loss in g/mouse,"[8]; Cage 4, Qd3–7, total 260 mg/kg",−3.2 g/mouse
same,Median Tumor Burden in mg on d14 (range),"[8]; Cage 4, Qd3–7, total 260 mg/kg",126 mg
same,Percent Body Weight Loss,"[8]; Cage 4, Qd3–7, total 260 mg/kg",−16.7%
same,T-C,"[8]; Cage 4, Qd3–7, total 260 mg/kg",10.5 days
same,T/C %,"[8]; Cage 4, Qd3–7, total 260 mg/kg",12.6%
same,Time to 1000 mg in days (range),"[8]; Cage 4, Qd3–7, total 260 mg/kg",24.5 days
same,Tumor Free on d31,"[8]; Cage 4, Qd3–7, total 260 mg/kg",0/5
same,day of full body weight recovery,"[8]; Cage 4, Qd3–7, total 260 mg/kg",≤ 17 days
same,Day of Wt. Loss Nadir,[8]; [23],9 days
same,Drug Death (day of death),[8]; [23],0/5
same,Log Cell Kill,[8]; [23],1.58
same,Mean Body Wt. Loss in g/mouse,[8]; [23],−0.0 g/mouse
same,Median Tumor Burden in mg on d14 (range),[8]; [23],260 mg
same,T-C,[8]; [23],11 days
same,T/C %,[8]; [23],26%
same,Time to 1000 mg in days (range),[8]; [23],25 days
same,Tumor Free on d31,[8]; [23],0/5
